In patent publication US20160368992A1, “A METHOD OF INCREASING GIPCR SIGNALIZATION IN THE CELLS OF A SCOLIOTIC SUBJECT” (CHU SAINTE-JUSTINE, priority 2013, published 2016):

Legend:
Gs protein = experiment: Immunoprecipitation/Western blot: Gs protein tyrosine phosphorylation and association with receptors in MC3T3-E1 cells; type: cell-based
Description: (§1) Taken into account these considerations and having observed that genetic deletion of OPN inversely influenced response to Gi and Gs stimulation (FIG. 1), it was of interest to examine the effect of OPN on the functional and phosphorylation status of Gs protein and on its interaction with receptors. For this purpose, cells were subjected to isoproterenol and desmopressin in the presence of rOPN or PBS. As expected, response to isoproterenol was higher in rOPN than in PBS-treated cells.

GiPCR signaling = GiPCR signaling after LPA stimulation in osteoblasts of AIS patients (CD44 CT SNP) and healthy controls in the presence of rOPN; type: cell-based, human; details: same rOPN treatment
Description: Next, the effect of the CT SNP on GiPCR signaling was assessed. Osteoblasts from severe AIS patients (who underwent surgery) carrying the CT SNP and osteoblasts from healthy controls with wild type CD44 (CC) were stimulated with LPA in the presence of recombinant OPN (rOPN). The GiPCR defective signaling effect in response to the same rOPN treatment was […] 50% more in mutated CD44 (CT) osteoblasts as compared to in wild type CD44 (CC) osteoblasts (FIG. 9 A). […] The CT mutation in CD44 thus increases the sensitivity of scoliotic patients to the damaging effects of OPN on GiPCR signaling and thereby contributes the more severe phenotype observed in these subjects.

GsPCR signaling = experiment: CDS response to GsPCR stimulation (isoproterenol, desmopressin) in MC3T3-E1 cells; type: cell-based
Description: as §1
Assuming that inhibition of Gi protein and phosphorylation of Gs protein are responsible for the increased GsPCR signaling associated with rOPN, the next experiments aimed to determine the contribution of each parameter. For this purpose, cells were treated with PTX to mimic disruption action of rOPN and compared to cells treated with rOPN alone or in combination with Src inhibitor (PP2) to prevent tyrosine phosphorylation. […] This modest difference was abolished by Src inhibitor (PP2). Similar observations were noted when cells were stimulated with desmopressin.

Gi1, Gi2, Gi3 proteins = experiment: Immunoprecipitation/Western blot: phosphorylation of Gi proteins in MC3T3-E1 cells; type: cell-based; details: rOPN vs PBS
Description: Given that the defective GiPCR signaling associated with idiopathic scoliosis has causatively been related to increased phosphorylation of Gi proteins (Moreau et al., 2004), it was of interest to examined whether OPN influences the phosphorylation status of Gi proteins. Accordingly, MC3T3-E1 cells were treated with rOPN, then cell lysates were immunoprecipitated with antibodies against Gi1, Gi2 or Gi3 protein isoforms, and the phosphorylation level was examined by Western blot using anti-phospho serine/threonine or anti-tyrosine antibodies. […] However, band density was higher in OPN-treated cells.
To support the involvement of α5β1 integrin in this process, cells were pre-treated with antibody against α5β1 integrin prior to rOPN treatment.
Cell extracts prepared from MC3T3-E1 that had been treated with rOPN in the presence or absence of an inhibitor specific for each kinase were subjected to immunoprecipitation and Western blot analysis. […] However, both serine and tyrosine phosphorylation were attenuated by inhibitors of FAK (FAK inhibitor-14), Scr (PP2), CaMKII (KN93), PI3K (wortmannin-data not shown), MEK (PD98059), ERK1/2 (FR180204), JNK (SP60125) and P38 (SB203580).

Substance: rOPN: exogenous recombinant osteopontin (R&D systems)
- presence of Gs proteins in the immunoprecipitates of MT2 and MO receptors (Gs protein; rOPN treatment): enhances
- Gs protein immunoprecipitates probed with anti-tyrosine antibody (Gs protein; rOPN-treated vs PBS-treated cells): higher intensity
- additional reduction of GiPCR signaling in mutated CD44 (CT) vs wild type CD44 (CC) osteoblasts (GiPCR signaling): 50%
- response to isoproterenol (similar with desmopressin) (GsPCR signaling; rOPN vs PBS-treated cells): higher
- greater responsiveness to isoproterenol stimulation than PTX-treated cells (GsPCR signaling; rOPN-treated vs PTX-treated cells): 30%
- phosphorylated serine and tyrosine residues in Gi precipitates (band density) (Gi1, Gi2, Gi3 proteins): higher
